According to patent US20090137557A1, “Calcilytic Compounds” (priority 2005, published 2009):

Target: T1, human calcium receptor (Homo sapiens, UniProt P41180)
T1 construct: expressed in transfected cells; host or cells: HEK 293 4.0-7
T1 sequence (P41180 20-1078): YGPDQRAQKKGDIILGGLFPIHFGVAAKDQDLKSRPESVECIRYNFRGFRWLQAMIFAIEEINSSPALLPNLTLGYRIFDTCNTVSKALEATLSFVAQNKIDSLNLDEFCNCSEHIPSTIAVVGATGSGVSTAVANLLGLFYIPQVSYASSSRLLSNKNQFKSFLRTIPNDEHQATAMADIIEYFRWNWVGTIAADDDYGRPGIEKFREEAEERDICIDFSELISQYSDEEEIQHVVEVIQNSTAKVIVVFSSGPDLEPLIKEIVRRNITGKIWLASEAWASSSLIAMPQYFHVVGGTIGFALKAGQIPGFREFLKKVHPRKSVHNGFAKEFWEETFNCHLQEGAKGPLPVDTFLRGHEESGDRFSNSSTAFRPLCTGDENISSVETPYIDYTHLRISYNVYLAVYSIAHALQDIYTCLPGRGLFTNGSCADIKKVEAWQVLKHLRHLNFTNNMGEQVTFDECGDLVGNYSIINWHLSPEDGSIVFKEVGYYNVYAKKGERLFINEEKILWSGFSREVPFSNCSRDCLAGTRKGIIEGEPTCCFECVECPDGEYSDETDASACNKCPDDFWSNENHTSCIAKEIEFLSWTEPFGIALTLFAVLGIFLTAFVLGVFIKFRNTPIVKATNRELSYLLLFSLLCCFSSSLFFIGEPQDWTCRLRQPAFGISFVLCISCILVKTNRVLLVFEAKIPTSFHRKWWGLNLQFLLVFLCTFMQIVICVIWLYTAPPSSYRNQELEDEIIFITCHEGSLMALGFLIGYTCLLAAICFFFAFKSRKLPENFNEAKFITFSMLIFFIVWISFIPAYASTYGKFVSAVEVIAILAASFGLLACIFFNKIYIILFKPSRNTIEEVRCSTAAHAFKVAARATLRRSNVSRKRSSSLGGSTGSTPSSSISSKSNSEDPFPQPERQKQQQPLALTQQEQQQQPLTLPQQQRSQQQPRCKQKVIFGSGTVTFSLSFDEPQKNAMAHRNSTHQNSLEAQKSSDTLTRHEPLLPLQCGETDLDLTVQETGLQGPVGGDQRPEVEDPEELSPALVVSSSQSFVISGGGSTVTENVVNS
Assay: Calcium Receptor Inhibitor Assay (block of intracellular Ca2+ increase elicited by extracellular Ca2+, fluo-3)
Type: cell-based
Set-up: key: Compounds having an IC50 greater than 30 uM were considered to be inactive; Compounds having an IC50 greater than 30 uM were considered to be inactive
Conditions: HEK 293 4.0-7 cells stably expressing the human calcium receptor; at the concentrations used
Method: (I) Calcium Receptor Inhibitor Assay
Calcilytic activity was measured by determining the IC50 of the test compound for blocking increases of intracellular Ca^2+ elicited by extracellular Ca^2+ in HEK 293 4.0-7 cells stably expressing the human calcium receptor. HEK 293 4.0-7 cells were constructed as described by Rogers et al., J. Bone Miner. Res. 10 Suppl. 1:3483, 1995 (hereby incorporated by reference herein). Intracellular Ca^2+ increases were elicited by increasing extracellular Ca^2+ from 1 to 1.75 mM. Intracellular Ca^2+ was measured using fluo-3, a fluorescent calcium indicator.
The procedure was as follows:
1. Cells were maintained in T-150 flasks in selection media (DMEM supplemented with 10% fetal bovine serum and 200 ug/mL hygromycin B), under 5% CO2:95% air at 37° C. and were grown up to 90% confluency.
2. The medium was decanted and the cell monolayer was washed twice with phosphate-buffered saline (PBS) kept at 37° C. After the second wash, 6 mL of 0.02% EDTA in PBS was added and incubated for 4 minutes at 37° C. Following the incubation, cells were dispersed by gentle agitation.
3. Cells from 2 or 3 flasks were pooled and pelleted (100×g). The cellular pellet was resuspended in 10-15 mL of SPF-PCB+ and pelleted again by centrifugation. This washing was done twice.
Sulfate- and phosphate-free parathyroid cell buffer (SPF-PCB) contains 20 mM Na-Hepes, pH 7.4, 126 mM NaCl, 5 mM KCl, and 1 mM MgCl2. SPF-PCB was made up and stored at 4° C. On the day of use, SPF-PCB was supplemented with 1 mg/mL of D-glucose and 1 mM CaCl2 and then split into two fractions. To one fraction, bovine serum albumin (BSA; fraction V, ICN) was added at 5 mg/mL (SPF-PCB+). This buffer was used for washing, loading and maintaining the cells. The BSA-free fraction was used for diluting the cells in the cuvette for measurements of fluorescence.
4. The pellet was resuspended in 10 mL of SPF-PCB+ containing 2.2 uM fluo-3 (Molecular Probes) and incubated at room temperature for 35 minutes.
5. Following the incubation period, the cells were pelleted by centrifugation. The resulting pellet was washed with SPF-PCB+. After this washing, cells were resuspended in SPF-PCB+ at a density of 1-2×10^6 cells/mL.
6. For recording fluorescent signals, 300 uL of cell suspension were diluted in 1.2 mL of SPF buffer containing 1 mM CaCl2 and 1 mg/mL of D-glucose. Measurements of fluorescence were performed at 37° C. with constant stirring using a spectrofluorimeter. Excitation and emission wavelengths were measured at 485 and 535 nm, respectively. To calibrate fluorescence signals, digitonin (5 mg/mL in ethanol) was added to obtain Fmax, and the apparent Fmin was determined by adding Tris-EGTA (2.5 M Tris-Base, 0.3 M EGTA). The concentration of intracellular calcium was calculated using the following equation:
Intracellular calcium=(F−Fmin/Fmax)×Kd; where Kd=400 nM.
7. To determine the potential calcilytic activity of test compounds, cells were incubated with test compound (or vehicle as a control) for 90 seconds before increasing the concentration of extracellular Ca^2+ from 1 to 2 mM. Calcilytic compounds were detected by their ability to block, in a concentration-dependent manner, increases in the concentration of intracellular Ca^2+ elicited by extracellular Ca^2+.
In general, those compounds having lower IC50 values in the Calcium Receptor Inhibitor Assay are more preferred compounds. […] The present examples were tested except for Examples 11, 20, 28, 44 and 107.

Row | SMILES | IC50 for blocking increases of intracellular Ca2+ elicited by extracellular Ca2+ (calcilytic activity)
1 | CCc1c(N2CCCCC2)nc(-c2cccc(F)c2O)n(CCc2cccc(F)c2)c1=O [Example 27, 5-Ethyl-2-(3-fluoro-2-hydroxyphenyl)-3-[2-(3-fluorophenyl)ethyl]-6-(1-Piperidinyl)-4(3H)-pyrimidinone] | inactive
2 | CCc1c(CCC2CCCCC2)nc(-c2cccc(F)c2O)n(CCc2ccccc2F)c1=O [Example 46] | inactive
3 | COc1ccccc1-c1nc(C)c(-c2cccs2)c(=O)n1CCc1ccccc1 [Example 100, 6-Methyl-2-[2-(methyloxy)phenyl]-3-(2-phenylethyl)-5-(2-thienyl)-4(3H)-pyrimidinone] | inactive
4 | Cc1nc(-c2ccccc2O)n(CCc2ccccc2)c(=O)c1N [Example 123, 5-Amino-2-(2-hydroxyphenyl)-6-methyl-3-(2-phenylethyl)-4(3H)-pyrimidinone] | inactive
5 | Cc1nc(-c2ccccc2O)n(CCc2ccccc2)c(=O)c1NC(=O)C(C)C [Example 127, N-[2-(2-Hydroxyphenyl)-4-methyl-6-oxo-1-(2-phenylethyl)-1,6-dihydro-5-pyrimidinyl]-2-methylpropanamide] | inactive
6 | Cc1nc(-c2ccccc2O)n(CCc2ccccc2)c(=O)c1-c1ccc(-c2nnn[nH]2)s1 [Example 214, 2-(2-hydroxyphenyl)-6-methyl-3-(2-phenylethyl)-5-[5-(1H-tetrazol-5-yl)-2-thienyl]-4(3H)-pyrimidinone] | inactive
7 | Cc1nc(-c2ccccc2O)n(CCc2ccccc2)c(=O)c1-c1ccc(CN)s1 [Example 215, 5-[5-(Aminomethyl)-2-thienyl]-2-(2-hydroxyphenyl)-6-methyl-3-(2-phenylethyl)-4(3H)-pyrimidinone] | inactive
8 | CNCc1ccc(-c2c(C)nc(-c3ccccc3O)n(CCc3ccccc3)c2=O)s1 [Example 216, 2-(2-hydroxyphenyl)-6-methyl-5-{5-[(methylamino)methyl]-2-thienyl}-3-(2-phenylethyl)-4(3H)-pyrimidinone] | inactive
